In US20240156860A1, “METHOD OF TREATING INFECTED AND NONINFECTED BURN WOUNDS” (priority 2021, published 2024):

Legend:
Format in all cases: cell-based, Pseudomonas aeruginosa
[1] = tested on: clinical strains of PA isolated from burn wounds; test: Checkerboard assay for MIC and FIC determination; settings: for MIC EDTA / MIC NaNO2: LB pH 6.5, 10% SS hydrogel, 24 hours; for FIC NaNO2: NaNO2 in combination with EDTA
Experimental: (§1) The inventors further confirmed the bactericidal activity of AB569 gel against various clinical strains of PA isolated from burn wound patients by synergy measurements using the checkerboard analysis. […] FICI=Fractional inhibitory concentration index. […] is synergistic; 0.5<FICI<1 is weak synergistic.
(§2) 96-well polystyrene plates were filled with 100 μl of LB, pH 6.5 and 10% SS hydrogel (Smith and Nephew, London, UK). Row A was filled with 100 μl of a 4× stock of Na2-EDTA (16 mM) and […] was filled with 4× NaNO2 stock (256 mM), bringing both to a 2× concentration. Two-fold serial dilutions were performed such that a concentration gradient of each was created. Column 12 was filled with media to represent a negative control. An overnight culture of bacteria was adjusted to an OD600 of 0.5 in LB media. This was then diluted 1:1000 into fresh media, which was then added to the checkerboard plate (columns 1-11). This dilution was selected as it harbored ˜5×10^5 CFU/ml. Column 11 was the positive control. Plates were incubated at 37° C. The cell turbidity was determined using a 96 well plate reader after 24 hours inoculation. The threshold used for a positive cutoff to calculate MICs and FICs was 0.001 after blank (media) subtraction.

PAO1 = test: Checkerboard assay for MIC and FIC determination; settings: strain PAO1
Experimental: as §1, §2

bioluminescent PA Xen41 = test: Broth based killing assay; settings: for killing of PA Xen41: 2 mM Na2-EDTA and/or 30 mM NaNO2 with gel (Solosite) 1:100, LB pH 6.5, 48 hours
Experimental: The efficacy of a formulation according to the present disclosure was tested in vitro using an overnight culture of bioluminescent PA Xen41, diluted in LB media (pH 6.5) along with a gel (Solosite®, herein SS) at a 1:100 dilution. Bioluminescent PA was used for both in vitro and in vivo experiments.
(§3) Bioluminescent PA-Xen41 was grown overnight in LB media at 37° C. with shaking. Overnight cultures were diluted 100-fold into fresh LBN (LB-1% KNO3) 6.5 media and 5 ml aliquots were transferred to culture tubes. Final concentrations of 30 mM NaNO2 and/or 2 mM Na2-EDTA were added to each tube. Cells were grown anaerobically at 37° C. mimicking a mature biofilm. Samples were taken daily for 48 hours while the cells were still in the anaerobic chamber. Samples were serially diluted in PBS, pH 7.4, and 10 μl aliquot from each dilution placed on LB agar plates and grown aerobically overnight at 37° C. CFU were enumerated the next morning and converted to CFU/ml after multiplying by the dilution factor.

[2] = tested on: clinical strains of PA isolated from human burn patients; test: Broth based killing assay on clinical strains; settings: gel formulation; 2 mM Na2-EDTA and/or 30 mM NaNO2; strains with varying antibiotic sensitivity and resistance
Experimental: The efficacy of the AB569 gel formulation was tested on different clinical strains of PA isolated from human burn patients with varying sensitivity and resistance to antibiotics using a broth based killing assay.
as §3

[3] = LB pH 6.5, 10% SS hydrogel, 24 hours

O=C([O-])CN(CCN(CC(=O)[O-])CC(=O)O)CC(=O)O.[Na+].[Na+] [Na2-EDTA, di-sodium EDTA]
MIC EDTA ([1]; strain Burn #1-1): 0.5 ± 0^ mM | MIC EDTA ([1]; strain Burn #1): 0.833 ± 0.289 mM | MIC EDTA ([1]; strain Burn #2-1): 0.833 ± 0.289 mM | MIC EDTA ([1]; strain Burn #2): 0.5 ± 0^ mM | MIC EDTA ([1]; strain Burn #3-1): 0.667 ± 0.289 mM | MIC EDTA ([1]; strain Burn #3): 0.833 ± 0.289 mM | MIC EDTA ([1]; strain Burn #4-1): 0.5 ± 0^ mM | MIC EDTA ([1]; strain Burn #4): 0.667 ± 0.289 mM | MIC EDTA ([1]; strain Burn #5-1): 0.5 ± 0^ mM | MIC EDTA ([1]; strain Burn #5): 0.5 ± 0^ mM | MIC EDTA ([1]; strain Burn #6-1): 0.5 ± 0^ mM | MIC EDTA ([1]; strain Burn #6): 0.667 ± 0.289 mM | MIC EDTA ([1]; strain Burn #7-1): 0.5 ± 0^ mM | MIC EDTA ([1]; strain Burn #7): 0.833 ± 0.289 mM | MIC EDTA ([1]; strain Burn #8-1): 0.5 ± 0^ mM | MIC EDTA ([1]; strain Burn #8): 0.667 ± 0.289 mM | MIC EDTA ([1]; strain Burn #9-1): 0.5 ± 0^ mM | MIC EDTA ([1]; strain Burn #9): 0.5 ± 0^ mM | MIC EDTA ([1]; strain Burn #10-1): 0.416 ± 0.144 mM | MIC EDTA ([1]; strain Burn #11-1): 0.667 ± 0.289 mM | MIC EDTA ([1]; strain Burn #12-1): 0.5 ± 0^ mM | FIC EDTA (PAO1; EDTA in combination with NaNO2): 0.333 ± 0.144 mM | MIC EDTA (PAO1; [3]): 0.833 ± 0.289 mM | killing of PA Xen41 (bioluminescent PA Xen41): significant killing | killing of clinical strains of PA [2]: efficient killing

O=N[O-].[Na+] [NaNO2]
MIC NaNO2 ([1]; strain Burn #1-1): 26.667 ± 9.238 mM | FIC NaNO2 ([1]; strain Burn #1-1): 5.333 ± 2.309 mM | MIC NaNO2 ([1]; strain Burn #1): 18.667 ± 12.220 mM | FIC NaNO2 ([1]; strain Burn #1): 4.167 ± 3.752 mM | MIC NaNO2 ([1]; strain Burn #2-1): 26.667 ± 9.238 mM | FIC NaNO2 ([1]; strain Burn #2-1): 6.667 ± 2.309 mM | MIC NaNO2 ([1]; strain Burn #2): 14.667 ± 15.144 mM | FIC NaNO2 ([1]; strain Burn #2): 7.333 ± 7.572 mM | MIC NaNO2 ([1]; strain Burn #3-1): 21.333 ± 9.238 mM | FIC NaNO2 ([1]; strain Burn #3-1): 5.333 ± 2.309 mM | MIC NaNO2 ([1]; strain Burn #3): 24 ± 13.856 mM | FIC NaNO2 ([1]; strain Burn #3): 6.667 ± 2.309 mM | MIC NaNO2 ([1]; strain Burn #4-1): 21.333 ± 9.238 mM | FIC NaNO2 ([1]; strain Burn #4-1): 9.333 ± 6.110 mM | MIC NaNO2 ([1]; strain Burn #4): 13.333 ± 4.618 mM | FIC NaNO2 ([1]; strain Burn #4): 2.75 ± 2.165 mM | MIC NaNO2 ([1]; strain Burn #5-1): 21.333 ± 9.238 mM | FIC NaNO2 ([1]; strain Burn #5-1): 2.667 ± 1.155 mM | MIC NaNO2 ([1]; strain Burn #5): 13.333 ± 4.618 mM | FIC NaNO2 ([1]; strain Burn #5): 4.667 ± 3.055 mM | MIC NaNO2 ([1]; strain Burn #6-1): 13.333 ± 4.618 mM | FIC NaNO2 ([1]; strain Burn #6-1): 2.333 ± 1.523 mM | MIC NaNO2 ([1]; strain Burn #6): 18.667 ± 12.220 mM | FIC NaNO2 ([1]; strain Burn #6): 5.333 ± 2.309 mM | MIC NaNO2 ([1]; strain Burn #7-1): 21.333 ± 9.238 mM | FIC NaNO2 ([1]; strain Burn #7-1): 6 ± 3.464 mM | MIC NaNO2 ([1]; strain Burn #7): 24 ± 13.856 mM | FIC NaNO2 ([1]; strain Burn #7): 6.667 ± 2.309 mM | MIC NaNO2 ([1]; strain Burn #8-1): 21.333 ± 9.238 mM | FIC NaNO2 ([1]; strain Burn #8-1): 0.75 ± 0.433 mM | MIC NaNO2 ([1]; strain Burn #8): 16 ± 0 mM | FIC NaNO2 ([1]; strain Burn #8): 2.167 ± 1.756 mM | MIC NaNO2 ([1]; strain Burn #9-1): 21.333 ± 9.238 mM | FIC NaNO2 ([1]; strain Burn #9-1): 4.666 ± 3.055 mM | MIC NaNO2 ([1]; strain Burn #9): 13.333 ± 4.618 mM | FIC NaNO2 ([1]; strain Burn #9): 5.333 ± 2.309 mM | MIC NaNO2 ([1]; strain Burn #10-1): 16 ± 0 mM | FIC NaNO2 ([1]; strain Burn #10-1): 4 ± 0 mM | MIC NaNO2 ([1]; strain Burn #11-1): 32 ± 27.713 mM | FIC NaNO2 ([1]; strain Burn #11-1): 8 ± 0 mM | MIC NaNO2 ([1]; strain Burn #12-1): 26.667 ± 9.238 mM | FIC NaNO2 ([1]; strain Burn #12-1): 6 ± 3.464 mM | MIC NaNO2 (PAO1; [3]): 18.667 ± 12.220 mM | FIC NaNO2 (PAO1; NaNO2 in combination with EDTA): 4.083 ± 3.876 mM | killing of PA Xen41 (bioluminescent PA Xen41): completely killed | killing of PA Xen41 (bioluminescent PA Xen41; listed as A-NO2^−): complete and maintained 48 hours | bioluminescent signals of XEN41-containing plates (IVIS) (bioluminescent PA Xen41; 48 hours after treatment): elimination of bioluminescent signals
